Consider five compounds from PMC2150313 (British Journal of Cancer, 1998).

A short description of data set [1]: Rat pharmacokinetics: plasma 4-OH-IF and chloroacetaldehyde after i.v. IF, with P450 inducer/inhibitor pretreatment. From the text: British Joumal of Cancer (1998) 77(11), 1768-1776 ? […] Both reactions are catalysed by multiple liver P450 enzymes in vitro in isolated rat liver microsomes. […] The identification of those P450s that contribute specifically to these individual meta- bolic pathways is of particular interest, given the large degree of interindividual differences in the catalytic activities of specific P450s seen in human liver samples (Shimada et al, 1994). […] This complexation, in turn, results in an inhibition of these P450s. Inhibition of P450 2B 1 by non-covalent interaction with the haem ligand metyrapone (MTP) has also been reported (Waxman and Walsh, 1983; Halpert, 1995). […] MTP and other specialty chemi- cals were of the highest grade commercially available and were obtained from Aldrich Chemical (Milwaukee, WI, USA). Animals Male Fischer 344 rats (160-250 g; 7-11 weeks of age) were purchased from Taconic (Germantown, NY, USA). Animals were maintained in individual plastic cages under conditions of constant temperature (22?C), lighting (12-h dark-light cycle) and humidity, and provided with food and water ad libitum, in accordance with the National Institutes of Health Guide for the Care and Use of Laboratory Animals. Rat pharmacokinetics Surgery For kinetic studies, rats were implanted with an indwelling cannula (silicone medical grade/polyethylene tubing) in the right jugular vein to allow blood sampling and drug administration. Surgery was performed under ketamine (Ketaset 95 mg kg-') and xylazine (Rompun 12 mg kg-') anaesthesia 3-4 days before the kinetic experiment. After cannulation, a Rodent Infusion Set obtained from Lomin (Quebec, Canada) was used to withdraw blood samples at appropriate time intervals. Catheters were flushed daily with heparinized saline (20 U ml-') to prevent clotting. […] The sample was then diluted in 0.9% saline to the final required volume and the pH adjusted to pH 4 with 1 M sodium hydroxide. […] At each time point, the rats were given an injection of 0.5 ml of 0.9% saline through the catheter to replace the volume of blood withdrawn. […] Data shown at each pharmacokinetic sampling point are means ? s.d. values. […] Plasma samples (100 gl of supematant) were removed and stored at -80?C until analysis. Plasma proteins were precipitated by successive addition of 40 gl of ice-cold 5.5% (w/v) zinc sulphate, 40 gl of ice-cold saturated barium hydroxide and 20 gl of ice-cold 0.01 M hydrochloric acid. Samples were centrifuged for 15 min at 16 000 g, and 125 gl of the supernatant was added to 67 gl of a solution containing 6 mg of 3-amino- phenol and 6 mg of hydroxylamine hydrochloride dissolved in 1 ml of 1 M hydrochloric acid. Samples were heated at 90?C for 30 min in the dark, then allowed to cool to room temperature and diluted with 408 pl of distilled water before reading the fluores- cence (350 nm excitation and 515 nm emission) on a Shimadzu RF15 spectrofluorophotometer. […] CA present in the plasma samples was derivatized with thiourea to produce 2-aminothiazole, which was assayed by high-performance liquid chromatography (HPLC) after solid- phase extraction by a modification of published methods (Yu and Waxman, 1996). Briefly, a 208-gl aliquot of heparinized blood was immediately mixed with 1 mm formaldehyde to stabilize CA, and then deproteinized with 25.2 pl of ice-cold 70% perchloric acid. After centrifugation (16 000 g for 4 min) at room temperature, 140 pl of the supernatant was added to 21 pl of 100 mM thiourea. […] The derivatized samples were stored at -80?C until analysis (usually within 2 weeks). The 2-aminothia- zole product was isolated using a 100-mg Bond Elut SCX cation- exchange column (Varian), and then eluted, evaporated in vacuo in a Speed Vac and analysed by HPLC on an Alltech Econosphere C18 column with an absorbance detector operating at a wavelength of 254 nm.

Another data set has as its system rat liver microsomes. Further details: method as in Yu and Waxman, 1996. The following applies: ref Yu and Waxman, 1996, cited from earlier work.
The target in a further data set is T1, P450 2B1 (Rattus norvegicus, UniProt P00176).
T1 sequence (P00176 1-491): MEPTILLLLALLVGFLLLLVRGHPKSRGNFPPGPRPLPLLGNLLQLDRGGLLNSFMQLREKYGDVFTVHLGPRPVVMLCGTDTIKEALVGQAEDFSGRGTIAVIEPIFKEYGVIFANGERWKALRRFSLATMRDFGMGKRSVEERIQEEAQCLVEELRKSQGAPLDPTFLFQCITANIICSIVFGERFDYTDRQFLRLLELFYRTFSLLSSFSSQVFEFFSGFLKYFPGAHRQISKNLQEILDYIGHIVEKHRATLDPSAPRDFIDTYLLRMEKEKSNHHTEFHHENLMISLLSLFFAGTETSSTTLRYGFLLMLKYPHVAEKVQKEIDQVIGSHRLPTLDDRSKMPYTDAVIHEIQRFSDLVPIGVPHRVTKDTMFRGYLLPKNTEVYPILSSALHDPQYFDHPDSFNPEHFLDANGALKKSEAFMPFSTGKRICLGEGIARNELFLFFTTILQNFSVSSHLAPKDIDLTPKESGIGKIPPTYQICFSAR
The following applies: isolated liver microsomes, vs untreated. A general note: Liver microsomes are a subcellular fraction often used to study metabolism.

[2] abbreviates: after IF 100 mg kg-1 i.v., DEX 50 mg kg-1 for 3 days.
[3] abbreviates: after IF 100 mg kg-1 i.v., PB20 rats given MTP 5 min before IF.

Structures are written as SMILES. Where two headings read alike, the source gives them in different places.

As to `O=P1(NCCCl)OCCC(O)N1CCCl` (stereo not drawn) [4-OH-IF, 4-hydroxy IF], the tmax in data set [1] (setting [2]) and in data set [1] (setting [3]) was 4 min throughout. For the same compound, in data set [1] (after IF 100 mg kg-1 i.v., untreated (UT) rats), the “tmax (time to reach peak plasma concentration)” value was 4 to 10 min.
The Cmax is the highest concentration seen after dosing. `O=CCCl` [CA, chloroacetaldehyde]: the tmax in data set [1] (setting [2]) is listed as 10 min; in data set [1] (setting [3]) it was 60 min; in data set [1] (after IF 100 mg kg-1 i.v., PB-pretreated rats (PB20 and PB80, Figure 1B and C)) it was 4 min. In addition, the highest concentration (Cmax) in data set [1] (plasma, IF 100 mg kg-1 i.v., PB80+TAO group (TAO 500 mg kg-1 2 h before IF), n=3) stood at 172 µM.
For `O=P1(NCCCl)OCCCN1CCCl` (stereo not drawn) [IF, ifosfamide], the “extent of in vitro IF N-dechloroethylation, of total metabolism” value is reported as 24% in the data set on rat liver microsomes (liver microsomes of DEX-treated male rats) and 47% with rat liver microsomes (liver microsomes of male rats without DEX treatment).
Take `Cc1ccccc1C(OCCN(C)C)c1ccccc1` (stereo not drawn) [ORP, orphenadrine, reference compound]: the “increase in CA half-life” value in data set [1] (male, Fischer 344, rat, in vivo, ip) was “approximately 30%”.
With `CCC1(c2ccccc2)C(=O)NC(=O)NC1=O` [PB, phenobarbital], the “induction of androstenedione 16β-hydroxylase activity” value was “fivefold” on P450 2B1 (PB20 regimen) and 7.5 fold at P450 2B1 (PB80 regimen).
